The first assay deals with T1, 5-hydroxytryptamine receptor 2C (Homo sapiens, UniProt P28335).
T1 sequence (P28335 whole entry): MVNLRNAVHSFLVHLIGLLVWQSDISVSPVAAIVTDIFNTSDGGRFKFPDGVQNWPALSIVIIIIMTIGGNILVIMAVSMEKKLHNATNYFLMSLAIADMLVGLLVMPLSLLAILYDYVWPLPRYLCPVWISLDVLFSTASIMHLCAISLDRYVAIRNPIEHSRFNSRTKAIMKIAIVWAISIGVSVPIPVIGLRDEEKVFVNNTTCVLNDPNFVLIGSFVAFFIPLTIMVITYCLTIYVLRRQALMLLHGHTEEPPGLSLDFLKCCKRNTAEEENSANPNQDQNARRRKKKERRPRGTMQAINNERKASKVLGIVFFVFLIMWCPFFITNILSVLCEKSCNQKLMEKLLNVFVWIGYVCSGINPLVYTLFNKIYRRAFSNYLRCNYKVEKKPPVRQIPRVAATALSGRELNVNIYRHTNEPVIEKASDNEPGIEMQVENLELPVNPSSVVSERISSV
Nature of the assay: Displacement of [3H]Mesulergine from human recombinant serotonin 5-HT2C expressed in CHO-K1 cells. Type of assay: cell-based. Background: Loss of bound radioactivity is the signal in a displacement assay; it reports binding, not function.
For `Cc1ccccc1NC(=O)N1CCN2CCCCC2C1` (configuration not stated), the IC50 was over 10 µM.
As to `CCC(=O)Nc1nn2c(-c3cccc(C)c3)nnc2s1`, the IC50 came out at 9.22 µM.
Still for that read-out and setting: next, `Cc1ccc(C2=NC3(CCNCC3)NC2=O)cc1C`: over 10 µM.
On the same count and under the same terms, with `CN(C)CCNC(=O)c1nc(-c2cccnc2)no1` the figure was over 10 µM; with `Cn1c(=O)n(C)c2cc(CNCCN3CCOCC3)ccc21`, over 10 µM.
Consider `CCc1nnc2c(NCCC3=CCCCC3)nc3ccccc3n12`, for which the IC50 was over 10 µM.
Still for that read-out and setting: with `Cc1cccc(CN2CCNC(=O)C2CC(=O)O)c1` (configuration not stated) the figure was over 10 µM.
The same measure, in the same setting: with `CCn1ncc(C2=NOC(C(=O)NCCN3CCOCC3)C2)c1C` (configuration not stated) the figure was over 10 µM; with `CC(=O)N(CCN(C)C)c1nc2cc3c(cc2s1)OCO3`, 2.73 µM; with `Cn1ncc2c(Nc3ccc(F)cc3)nc(NCCN3CCOCC3)nc21`, over 10 µM.
Turning to `COC(=O)c1cnn2c(O)nc(C3CCNCC3)nc12`, the IC50 turned out to be 0.589 µM.
For the compound `COc1ccc2c3c([nH]c2c1)[C@@](C)(C(=O)O)NCC3`, the IC50 is over 10 µM.
Consider `CCc1ccccc1NC(=O)CC1NCCNC1=O` (configuration not stated), for which the IC50 is over 10 µM.
Same read-out and setting: next, `CN(C)CCNC(=O)c1ccc(-n2ccc3ccccc32)s1`: 0.222 µM; `CCCNc1nc(Nc2ccccc2)c2cnn(C)c2n1`: over 10 µM; `CCOC(=O)C1=CCc2nc(C)nc(NCCN(C)C)c21`: 4.48 µM.
On the same count and under the same terms, with `CCNc1nc(Nc2ccc(F)cc2)c2cnn(C)c2n1` the figure was over 10 µM.
Take `CC(=O)N(CCN(C)C)c1nc2c(F)cccc2s1`: the IC50 was found to be 2 µM.
Same read-out and setting: with `CN1CCN(CCNC(=O)c2cc3ccc4cccnc4c3[nH]2)CC1` the figure was over 10 µM; with `COCCNc1nc(Nc2ccc(F)cc2)c2cnn(C)c2n1`, over 10 µM.
Take `CCN1Cc2cccc(CNc3ccc(C)c(F)c3)c2C1`: the IC50 was found to be 5.63 µM.
Same read-out and setting: with `COCCCNc1nc(Nc2ccc(F)cc2)c2cnn(C)c2n1` the figure was over 10 µM; with `C=CCNc1nc(Nc2ccc(F)cc2)c2cnn(C)c2n1`, over 10 µM.
Turning to `Cn1ncc2c(Nc3ccc(F)cc3)nc(NC3CCCC3)nc21`, the IC50 was over 10 µM.
Regarding `CCCNc1nc2ccc(C)cc2n2nnnc12`, the IC50 is over 10 µM.
On to `Cc1noc2ncnc(NCCN3CCOCC3)c12`, for which the half-maximal inhibitory concentration (IC50) was over 10 µM.
Still for that read-out and setting: with `Cc1ccc(NC(=O)N2CCN3CCCCC3C2)cc1C` (configuration not stated) the figure was over 10 µM; with `Cc1ccc(CCNc2nc3ccc(C)cc3n3nnnc23)cc1`, over 10 µM; with `CC(=O)Nc1c(C(=O)N2CCN(C)CC2)oc2ccccc12`, 5.29 µM.
On to `CCOC(=O)c1noc2ncnc(N3CCN(C)CC3)c12`, for which the IC50 came to 2.05 µM.
As to `CCN(CC)CCn1c(NCc2ccncc2)nc2ccccc21`, the 50% inhibitory concentration (IC50) is over 10 µM.
On the same count and under the same terms, next, `CCCCN(C)CCNc1nc(C)nc2oc(C)c(C(=O)OCC)c12`: 4.17 µM; `Cc1cccc(C(=O)Nc2nn3c(-c4ccccc4C)nnc3s2)c1`: over 10 µM.
Turning to `Cc1noc(C(=O)NCCN2CCOCC2)c1Cl`, the IC50 is over 10 µM.
Still for that read-out and setting: next, `CCOC(=O)c1c(C)oc2ncnc(NCCN3CCOCC3)c12`: over 10 µM.
Regarding `Cc1ccc2onc(CNC(=O)N3CCN(C)CC3)c2c1`, the IC50 came to 8.93 µM.
Turning to `Cc1nnc(SCc2cc(=O)n3nc(C4CC4)sc3n2)[nH]1`, the IC50 was over 10 µM.
For `CC1CCCCN1CCNC(=O)c1noc2c1CCc1sccc1-2` (configuration not stated), the IC50 was over 10 µM.
On to `Cn1ncc2c(Nc3ccc(F)cc3)nc(NCCCO)nc21`, for which the IC50 is over 10 µM.
In the case of `CN(C)CCNC(=O)c1cc2ccccc2[nH]1`, the IC50 is 0.424 µM.
Still for that read-out and setting: next, `COc1cc2c(cc1OC)C1CCCN1C(C)(C)C2` (configuration not stated): over 10 µM.
Regarding `Cc1cc(C(=O)NCCN2CCOCC2)on1`, the IC50 was over 10 µM.
The same measure, in the same setting: next, `CCNc1nc(Nc2ccccc2)c2cnn(C)c2n1`: over 10 µM.
Same read-out and setting: next, `CCc1nnc2c(NC)nc3ccccc3n12`: 5.11 µM.

The next assay has as its target T1, 5-hydroxytryptamine receptor 2C. Nature of the assay: Binding affinity to 5-HT2C receptor.
With `C[C@@H]1CNC[C@H]2Cc3ccc(COCC4CC4)nc3N21`, the Ki came to 0.004 µM.
`O=C1Nc2cc(Cl)c(Cl)cc2N2CCNC[C@H]12` yielded a Ki of 0.0033 µM.
With `Clc1ccc(Cl)c(-c2ccnc(N3C[C@@H]4CCN[C@@H]4C3)n2)c1`, the Ki was over 20 µM.
Same read-out and setting: next, `Clc1cccc(COc2cncc(N3CCNCC3)n2)c1`: 0.001 µM; `C[C@@H]1CN(c2ccc(C(F)(F)F)c3ccoc23)CCN1`: 0.0024 µM.
Consider `Fc1cccc(F)c1-c1cc2c3c(c1)[C@H]1CNCC[C@H]1N3CCCS2`, for which the affinity, expressed as Ki, was 0.0052 µM.
Same read-out and setting: next, `C[C@@H](N)Cn1ccc2cc(F)c(Cl)cc21`: 0.001 µM; `CCc1cc2c(ccc3cnn(C[C@@H](C)N)c32)o1`: 0.00089 µM.

The term IC50 denotes the concentration that gives 50% inhibition. By Ki is commonly meant a measure of affinity in units of concentration, obtained from inhibition or displacement. A lower Ki goes with a stronger hold on the target.
